# Source: patent publication US5684024A, “Pyrazole dimers compositions and methods for treating influenza” (priority 1996, dated 1997)
# Assays:
# [1] = biological target: influenza A/WSN virus transcriptase (Influenza A virus, UniProt P03427+P03430+P15659); assay: biochemical; settings: read-out: IC50, concentration required to achieve 50% inhibition of influenza A/WSN virus transcriptase activity
# influenza A/Victoria = assay: Plaque reduction in MDCK cells, influenza A/Victoria; settings: 48 h, read-out: IC50, […], A/Victoria
# Experimental: (§1) Compounds were evaluated for antiviral activity against influenza A/WSN by plaque reduction in Madin Darby canine kidney (MDCK) cells. Duplicate monolayers of MDCK cells in 6 well plates were washed free of protein-containing media, infected with 50-100 plaque-forming units of virus (0.4 ml volume), and incubated at 37° C. for 60 min. After aspiration of the virus inoculum, a 0.6% agarose overlay (3 ml) containing Eagle minimal essential media, trypsin (8 μg/ml), and the appropriate drug dilution (final concentration of 1% DMSO) was added to the cell monolayer. Plates were incubated at 37° C. in a humidified atmosphere of 5% CO2 in air. After 48 h, monolayers were fixed with glutaraldehyde, stained with 0.1% crystal violet and the plaques were counted. The percentage of plaque inhibition relative to the infected control (no drug) plates were calculated for each drug concentration and the 50% inhibitory concentration (IC50) was determined.
# influenza A/WSN = assay: Plaque reduction in MDCK cells, influenza A/WSN; settings: 48 h, read-out: IC50, […], A/WSN
# Experimental: as §1
SMILES,IC50 [1],IC50 (influenza A/Victoria),IC50 (influenza A/WSN)
CC(=O)C1=NN(c2cc(C(=O)O)ccc2C)C(=O)C1=C1C(=O)N(c2cc(C(=O)O)ccc2C)N=C1C(C)=O [Example 10],350 nM,,
CC(=O)C1=NN(c2ccc(C(=O)O)cc2)C(=O)C1=C1C(=O)N(c2ccc(C(=O)O)cc2)N=C1C(C)=O [Example 7],500 nM,30000 nM,50000 nM
CC(=O)C1=NN(c2cccc(C(=O)O)c2)C(=O)C1=C1C(=O)N(c2cccc(C(=O)O)c2)N=C1C(C)=O [Example 8],350 nM,,
CC(=O)C1=NN(c2ccc(C(=O)O)c(Cl)c2)C(=O)C1=C1C(=O)N(c2ccc(C(=O)O)c(Cl)c2)N=C1C(C)=O [Example 6],800 nM,,
CC(=O)C1=NN(c2ccc(Cl)c(C(=O)O)c2)C(=O)C1=C1C(=O)N(c2ccc(Cl)c(C(=O)O)c2)N=C1C(C)=O [Example 9],250 nM,,
"CC(=O)C1=NN(c2ccc(C(=O)O)cc2C)C(=O)C1=C1C(=O)N(c2ccc(C(=O)O)cc2C)N=C1C(C)=O [Example 4, 3,3'-Bis[3-Methyl-4-(2-hydroxy-4-acetylpyrazolyl)-benzoic Acid]]",200 nM,25000 nM,50000 nM
COc1cc(C(=O)O)ccc1N1N=C(C(C)=O)C(=C2C(=O)N(c3ccc(C(=O)O)cc3OC)N=C2C(C)=O)C1=O [Example 5],1200 nM,,
